Measured values from patent publication US6355799B1, “Substituted benzene compounds, process for their preparation, and herbicidal and defoliant compositions containing them” (ISK Americas Incorporated, priority 1997, dated 2002).

How the values were obtained:
Format in all cases: in vivo
[1] = system: johnsongrass (Sorghum halepense, SORHA); test: Post-emerge test, greenhouse herbicide activity screening; settings: phytotoxicity rating 0-100 (0 no damage, 100 complete death), 14 days after application
Summary of the method: (§1)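 Compounds in acetone were track-sprayed at 15–1000 g ai/ha: pre-emergence onto soil sown the previous day, then top-watered to incorporate and later bottom-watered; post-emergence onto 2–3 leaf plants with 0.25% v/v surfactant, bottom-watered only. Ratings on a 0–100 phytotoxicity scale were taken at day 14.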

[2] = system: velvetleaf (Abutilon theophrasti, ABUTH); test: as above; settings: phytotoxicity rating 0-100 (0 no damage, 100 complete death), 14 days after application
Summary of the method: as §1

[3] = system: large crabgrass (Digitaria sanguinalis, DIGSA); test: as above; settings: phytotoxicity rating 0-100 (0 no damage, 100 complete death), 14 days after application
Summary of the method: as §1

[4] = system: redroot pigweed (Amaranthus retroflexus, AMARE); test: as above; settings: phytotoxicity rating 0-100 (0 no damage, 100 complete death), 14 days after application
Summary of the method: as §1

[5] = system: sicklepod (Cassia obtusifolia, CASOB); test: as above; settings: phytotoxicity rating 0-100 (0 no damage, 100 complete death), 14 days after application
Summary of the method: as §1

[6] = system: lambsquarters (Chenopodium album, CHEAL); test: as above; settings: phytotoxicity rating 0-100 (0 no damage, 100 complete death), 14 days after application
Summary of the method: as §1

[7] = system: ivyleaf morningglory (Ipomoea hederacea, IPOHE); test: as above; settings: phytotoxicity rating 0-100 (0 no damage, 100 complete death), 14 days after application
Summary of the method: as §1

[8] = system: green foxtail (Setaria viridis, SETVI); test: as above; settings: phytotoxicity rating 0-100 (0 no damage, 100 complete death), 14 days after application
Summary of the method: as §1

[9] = system: barnyardgrass (Echinochloa crus-galli, ECHCG); test: as above; settings: phytotoxicity rating 0-100 (0 no damage, 100 complete death), 14 days after application
Summary of the method: as §1

[10] = system: field corn (Zea mays L., var. Dekalb 535, CORN); test: Post-emerge test, crop safety; settings: phytotoxicity rating 0-100 (0 no damage, 100 complete death), 14 days after application
Summary of the method: (§2)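 Each test used a mechanized track sprayer delivering 187 l/ha of acetone solution at 15–1000 g ai/ha. Post-emerge foliage at 2–3 leaves was treated with added 0.25% v/v non-ionic surfactant and bottom-watered only. Injury was assessed on day 14, where 100 means total kill.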

[11] = system: upland rice (Oryza sp., var. Tebonnet, RICE); test: Post-emerge test, crop safety; settings: phytotoxicity rating 0-100 (0 no damage, 100 complete death), 14 days after application
Summary of the method: as §2

[12] = system: field corn (Zea mays L., var. Dekalb 535, CORN); test: Pre-emerge test, crop safety; settings: pre-emerge, rated 14 days after application, 0 = no damage, 100 = complete death
Summary of the method: (§3)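 Herbicidal damage is scored 0 (none) to 100 (complete plant death) two weeks after a simulated field spray. Rates span 15–1000 g ai/ha, delivered in acetone at 187 l/ha. For post-emergence treatments, plants have 2–3 leaves and the spray carries 0.25% v/v non-ionic surfactant.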

[13] = system: upland rice (Oryza sp., var. Tebonnet, RICE); test: Pre-emerge test, crop safety; settings: pre-emerge, rated 14 days after application, 0 = no damage, 100 = complete death
Summary of the method: as §3

[14] = system: redroot pigweed (Amaranthus retroflexus, AMARE); test: Pre-emerge test, greenhouse herbicide activity screening; settings: pre-emerge, rated 14 days after application, 0 = no damage, 100 = complete death
Summary of the method: (§4)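 Plants grown in 10 cm pots of sandy loam mix received acetone-dissolved compounds through a moving flat-fan nozzle. Doses ranged from 15 to 1000 g ai/ha. Pre-emerge pots were seeded one day earlier, post-emerge pots 8–21 days earlier. Fourteen days on, each pot was graded 0–100 for damage.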

[15] = system: johnsongrass (Sorghum halepense, SORHA); test: as above; settings: pre-emerge, rated 14 days after application, 0 = no damage, 100 = complete death
Summary of the method: as §4

[16] = system: velvetleaf (Abutilon theophrasti, ABUTH); test: as above; settings: pre-emerge, rated 14 days after application, 0 = no damage, 100 = complete death
Summary of the method: as §4

[17] = system: large crabgrass (Digitaria sanguinalis, DIGSA); test: as above; settings: pre-emerge, rated 14 days after application, 0 = no damage, 100 = complete death
Summary of the method: as §4

[18] = system: sicklepod (Cassia obtusifolia, CASOB); test: as above; settings: pre-emerge, rated 14 days after application, 0 = no damage, 100 = complete death
Summary of the method: as §4

[19] = system: lambsquarters (Chenopodium album, CHEAL); test: as above; settings: pre-emerge, rated 14 days after application, 0 = no damage, 100 = complete death
Summary of the method: as §4

[20] = system: ivyleaf morningglory (Ipomoea hederacea, IPOHE); test: as above; settings: pre-emerge, rated 14 days after application, 0 = no damage, 100 = complete death
Summary of the method: as §4

[21] = system: green foxtail (Setaria viridis, SETVI); test: as above; settings: pre-emerge, rated 14 days after application, 0 = no damage, 100 = complete death
Summary of the method: as §4

[22] = system: barnyardgrass (Echinochloa crus-galli, ECHCG); test: as above; settings: pre-emerge, rated 14 days after application, 0 = no damage, 100 = complete death
Summary of the method: as §4

## COc1c(Cl)cc(F)c(-n2c(=O)cc(C(F)(F)F)n(C)c2=O)c1N(C(=O)C=C(C)C)C(=O)C=C(C)C [2-8]
[1]; 63 g ai/ha
  Post-emerge Herbicidal Activity SORHA: 0
[1]; 250 g ai/ha
  Post-emerge Herbicidal Activity SORHA: 0
[2]; 63 g ai/ha
  Post-emerge Herbicidal Activity ABUTH: 0
[2]; 250 g ai/ha
  Post-emerge Herbicidal Activity ABUTH: 40
[3]; 63 g ai/ha
  Post-emerge Herbicidal Activity DIGSA: 0
[3]; 250 g ai/ha
  Post-emerge Herbicidal Activity DIGSA: 0
[4]; 63 g ai/ha
  Post-emerge Herbicidal Activity AMARE: 0
[4]; 250 g ai/ha
  Post-emerge Herbicidal Activity AMARE: 20
[5]; 63 g ai/ha
  Post-emerge Herbicidal Activity CASOB: 0
[5]; 250 g ai/ha
  Post-emerge Herbicidal Activity CASOB: 0
[6]; 63 g ai/ha
  Post-emerge Herbicidal Activity CHEAL: 0
[6]; 250 g ai/ha
  Post-emerge Herbicidal Activity CHEAL: 60
[7]; 63 g ai/ha
  Post-emerge Herbicidal Activity IPOHE: 0
[7]; 250 g ai/ha
  Post-emerge Herbicidal Activity IPOHE: 50
[8]; 63 g ai/ha
  Post-emerge Herbicidal Activity SETVI: 0
[8]; 250 g ai/ha
  Post-emerge Herbicidal Activity SETVI: 0
[9]; 63 g ai/ha
  Post-emerge Herbicidal Activity ECHCG: 0
[9]; 250 g ai/ha
  Post-emerge Herbicidal Activity ECHCG: 0
[10]; 63 g ai/ha
  Post-emerge Herbicidal Activity CORN (crop damage): 0
[10]; 250 g ai/ha
  Post-emerge Herbicidal Activity CORN (crop damage): 0
[11]; 63 g ai/ha
  Post-emerge Herbicidal Activity RICE (crop damage): 0
[11]; 250 g ai/ha
  Post-emerge Herbicidal Activity RICE (crop damage): 0
[12]; 63 g ai/ha
  Pre-emerge crop damage CORN (phytotoxicity rating, scale 0-100): 15
[12]; 250 g ai/ha
  Pre-emerge crop damage CORN (phytotoxicity rating, scale 0-100): 15
[13]; 63 g ai/ha
  Pre-emerge crop damage RICE (phytotoxicity rating, scale 0-100): 50
[13]; 250 g ai/ha
  Pre-emerge crop damage RICE (phytotoxicity rating, scale 0-100): 50
[14]; 63 g ai/ha
  Pre-emerge Herbicidal Activity AMARE (phytotoxicity rating, scale 0-100): 40
[14]; 250 g ai/ha
  Pre-emerge Herbicidal Activity AMARE (phytotoxicity rating, scale 0-100): 100
[15]; 63 g ai/ha
  Pre-emerge Herbicidal Activity SORHA (phytotoxicity rating, scale 0-100): 40
[15]; 250 g ai/ha
  Pre-emerge Herbicidal Activity SORHA (phytotoxicity rating, scale 0-100): 40
[16]; 63 g ai/ha
  Pre-emerge Herbicidal Activity ABUTH (phytotoxicity rating, scale 0-100): 0
[16]; 250 g ai/ha
  Pre-emerge Herbicidal Activity ABUTH (phytotoxicity rating, scale 0-100): 100
[17]; 63 g ai/ha
  Pre-emerge Herbicidal Activity DIGSA (phytotoxicity rating, scale 0-100): 80
[17]; 250 g ai/ha
  Pre-emerge Herbicidal Activity DIGSA (phytotoxicity rating, scale 0-100): 80
[18]; 63 g ai/ha
  Pre-emerge Herbicidal Activity CASOB (phytotoxicity rating, scale 0-100): 0
[18]; 250 g ai/ha
  Pre-emerge Herbicidal Activity CASOB (phytotoxicity rating, scale 0-100): 0
[19]; 63 g ai/ha
  Pre-emerge Herbicidal Activity CHEAL (phytotoxicity rating, scale 0-100): 60
[19]; 250 g ai/ha
  Pre-emerge Herbicidal Activity CHEAL (phytotoxicity rating, scale 0-100): 100
[20]; 63 g ai/ha
  Pre-emerge Herbicidal Activity IPOHE (phytotoxicity rating, scale 0-100): 0
[20]; 250 g ai/ha
  Pre-emerge Herbicidal Activity IPOHE (phytotoxicity rating, scale 0-100): 100
[21]; 63 g ai/ha
  Pre-emerge Herbicidal Activity SETVI (phytotoxicity rating, scale 0-100): 90
[21]; 250 g ai/ha
  Pre-emerge Herbicidal Activity SETVI (phytotoxicity rating, scale 0-100): 90
[22]; 63 g ai/ha
  Pre-emerge Herbicidal Activity ECHCG (phytotoxicity rating, scale 0-100): 0
[22]; 250 g ai/ha
  Pre-emerge Herbicidal Activity ECHCG (phytotoxicity rating, scale 0-100): 0

## COc1c(Cl)cc(F)c(-n2c(=O)cc(C(F)(F)F)n(C)c2=O)c1N(C(=O)C1CC1)C(=O)C1CC1 [2-18]
[1]; 63 g ai/ha
  Post-emerge Herbicidal Activity SORHA: 0
[1]; 250 g ai/ha
  Post-emerge Herbicidal Activity SORHA: 0
[2]; 63 g ai/ha
  Post-emerge Herbicidal Activity ABUTH: 0
[2]; 250 g ai/ha
  Post-emerge Herbicidal Activity ABUTH: 40
[3]; 63 g ai/ha
  Post-emerge Herbicidal Activity DIGSA: 0
[3]; 250 g ai/ha
  Post-emerge Herbicidal Activity DIGSA: 0
[4]; 63 g ai/ha
  Post-emerge Herbicidal Activity AMARE: 0
[4]; 250 g ai/ha
  Post-emerge Herbicidal Activity AMARE: 95
[5]; 63 g ai/ha
  Post-emerge Herbicidal Activity CASOB: 0
[5]; 250 g ai/ha
  Post-emerge Herbicidal Activity CASOB: 10
[6]; 63 g ai/ha
  Post-emerge Herbicidal Activity CHEAL: 0
[6]; 250 g ai/ha
  Post-emerge Herbicidal Activity CHEAL: 50
[7]; 63 g ai/ha
  Post-emerge Herbicidal Activity IPOHE: 0
[7]; 250 g ai/ha
  Post-emerge Herbicidal Activity IPOHE: 30
[8]; 63 g ai/ha
  Post-emerge Herbicidal Activity SETVI: 0
[8]; 250 g ai/ha
  Post-emerge Herbicidal Activity SETVI: 0
[9]; 63 g ai/ha
  Post-emerge Herbicidal Activity ECHCG: 0
[9]; 250 g ai/ha
  Post-emerge Herbicidal Activity ECHCG: 0
[10]; 63 g ai/ha
  Post-emerge Herbicidal Activity CORN (crop damage): 0
[10]; 250 g ai/ha
  Post-emerge Herbicidal Activity CORN (crop damage): 0
[11]; 63 g ai/ha
  Post-emerge Herbicidal Activity RICE (crop damage): 0
[11]; 250 g ai/ha
  Post-emerge Herbicidal Activity RICE (crop damage): 0
[12]; 63 g ai/ha
  Pre-emerge crop damage CORN (phytotoxicity rating, scale 0-100): 0
[12]; 250 g ai/ha
  Pre-emerge crop damage CORN (phytotoxicity rating, scale 0-100): 0
[13]; 63 g ai/ha
  Pre-emerge crop damage RICE (phytotoxicity rating, scale 0-100): 0
[13]; 250 g ai/ha
  Pre-emerge crop damage RICE (phytotoxicity rating, scale 0-100): 20
[14]; 63 g ai/ha
  Pre-emerge Herbicidal Activity AMARE (phytotoxicity rating, scale 0-100): 40
[14]; 250 g ai/ha
  Pre-emerge Herbicidal Activity AMARE (phytotoxicity rating, scale 0-100): 100
[15]; 63 g ai/ha
  Pre-emerge Herbicidal Activity SORHA (phytotoxicity rating, scale 0-100): 0
[15]; 250 g ai/ha
  Pre-emerge Herbicidal Activity SORHA (phytotoxicity rating, scale 0-100): 0
[16]; 63 g ai/ha
  Pre-emerge Herbicidal Activity ABUTH (phytotoxicity rating, scale 0-100): 0
[16]; 250 g ai/ha
  Pre-emerge Herbicidal Activity ABUTH (phytotoxicity rating, scale 0-100): 100
[17]; 63 g ai/ha
  Pre-emerge Herbicidal Activity DIGSA (phytotoxicity rating, scale 0-100): 0
[17]; 250 g ai/ha
  Pre-emerge Herbicidal Activity DIGSA (phytotoxicity rating, scale 0-100): 0
[18]; 63 g ai/ha
  Pre-emerge Herbicidal Activity CASOB (phytotoxicity rating, scale 0-100): 0
[18]; 250 g ai/ha
  Pre-emerge Herbicidal Activity CASOB (phytotoxicity rating, scale 0-100): 40
[19]; 63 g ai/ha
  Pre-emerge Herbicidal Activity CHEAL (phytotoxicity rating, scale 0-100): 10
[19]; 250 g ai/ha
  Pre-emerge Herbicidal Activity CHEAL (phytotoxicity rating, scale 0-100): 90
[20]; 63 g ai/ha
  Pre-emerge Herbicidal Activity IPOHE (phytotoxicity rating, scale 0-100): 0
[20]; 250 g ai/ha
  Pre-emerge Herbicidal Activity IPOHE (phytotoxicity rating, scale 0-100): 40
[21]; 63 g ai/ha
  Pre-emerge Herbicidal Activity SETVI (phytotoxicity rating, scale 0-100): 0
[21]; 250 g ai/ha
  Pre-emerge Herbicidal Activity SETVI (phytotoxicity rating, scale 0-100): 80
[22]; 63 g ai/ha
  Pre-emerge Herbicidal Activity ECHCG (phytotoxicity rating, scale 0-100): 0
[22]; 250 g ai/ha
  Pre-emerge Herbicidal Activity ECHCG (phytotoxicity rating, scale 0-100): 0
